In brackets after ≈: the same amount, converted by molar mass. Values belong to the compound of their own block, whether it stands above or below them.
Key:
Experiment in all cases: ≥ marks a high value that may be exact or a test limit, other limits are often not marked, values filed in µg/mL are converted to µM
[1] = tested on: Staphylococcus aureus 1399/17
[2] = tested on: Staphylococcus aureus SG511
[3] = tested on: Escherichia coli ESBL 521/17
[4] = tested on: Klebsiella pneumoniae ESBL 344/17
[5] = tested on: Acinetobacter baumannii 7226/16
[6] = tested on: Staphylococcus aureus ATCC 33591
Escherichia coli ML-35p = tested on: Escherichia coli ML-35p
[7] = tested on: Pseudomonas aeruginosa 522/17
Pseudomonas aeruginosa = tested on: Pseudomonas aeruginosa
[8] = tested on: Pseudomonas aeruginosa CMCCB 1010
[9] = tested on: Pseudomonas aeruginosa ATCC 27853
[10] = tested on: Enterobacter cloacae ATCC 13047
[11] = tested on: Staphylococcus aureus ATCC 25923
[12] = tested on: Candida albicans ATCC 2002
[13] = tested on: Enterococcus faecalis ATCC 29212
Klebsiella pneumoniae = tested on: Klebsiella pneumoniae
[14] = tested on: Klebsiella pneumoniae ATCC 700603
Shigella dysenteriae = tested on: Shigella dysenteriae
Staphylococcus aureus 10 = tested on: Staphylococcus aureus 10
[15] = tested on: Escherichia coli ATCC 25922
Escherichia coli 37 = tested on: Escherichia coli 37
[16] = tested on: Pseudomonas aeruginosa PAO1
Escherichia coli DC2 = tested on: Escherichia coli DC2
[17] = tested on: Bacillus subtilis ATCC 6633
[18] = tested on: Staphylococcus epidermidis C621
[19] = tested on: Pseudomonas aeruginosa PA214
Escherichia coli K-12 = tested on: Escherichia coli K-12
Escherichia coli BL21 = tested on: Escherichia coli BL21
[20] = tested on: Pseudomonas aeruginosa PA330
Escherichia coli UB1005 = tested on: Escherichia coli UB1005
[21] = tested on: Corynebacterium xerosis C875
[22] = tested on: Xanthomonas axonopodis pv. citri
[23] = tested on: Staphylococcus aureus ATCC 29313
[24] = tested on: Staphylococcus aureus ATCC 6538
[25] = tested on: Proteus vulgaris NCTC 4635
[26] = tested on: Escherichia coli ATCC 8739
[27] = tested on: Pseudomonas aeruginosa ATCC 9027
[28] = tested on: Bacillus subtilis ATCC 9372
[29] = tested on: Streptococcus suis KCTC 3557
[30] = tested on: Listeria monocytogenes KCCM 43155
[31] = tested on: Listeria monocytogenes KCCM 40307
[32] = tested on: Salmonella typhimurium CCARM 8013
[33] = tested on: Listeria monocytogenes KCTC 3710
[34] = tested on: Campylobacter jejuni KCTC 5327
[35] = tested on: Salmonella enterica subsp. enterica serovar Typhimurium ATCC 14028
[36] = tested on: Salmonella typhimurium CCARM 8009

- MIC [1]: 11.3 µM (≈ 38.2 µg/mL)
- MIC [2]: 0.5 µM (≈ 1.69 µg/mL)
- MIC [3]: 4 µM (≈ 13.5 µg/mL)
- MIC [4]: 5.66 µM (≈ 19.1 µg/mL)
- MIC [5]: 5.66 µM (≈ 19.1 µg/mL)
- MIC [6]: ≥ 32 µM
- MIC (Escherichia coli ML-35p): 2 µM (≈ 6.75 µg/mL)
- MIC [7]: ≥ 32 µM
Structure (SMILES): CC[C@H](C)[C@H](NC(=O)[C@H](CCCN=C(N)N)NC(=O)[C@@H](NC(=O)[C@@H]1CCCN1C(=O)[C@@H]1CCCN1C(=O)[C@H](CCCN=C(N)N)NC(=O)[C@H](CCCN=C(N)N)NC(=O)[C@H](Cc1ccccc1)NC(=O)[C@@H]1CCCN1C(=O)[C@H](CC(C)C)NC(=O)[C@H](CCCN=C(N)N)NC(=O)[C@H](Cc1ccccc1)NC(=O)[C@@H](N)CCCN=C(N)N)[C@@H](C)CC)C(=O)N[C@@H](Cc1cnc[nH]1)C(=O)N1CCC[C@H]1C(=O)N1CCC[C@H]1C(=O)N1CCC[C@H]1C(=O)N[C@@H](Cc1ccccc1)C(=O)N[C@@H](Cc1ccc(O)cc1)C(=O)N1CCC[C@H]1C(=O)N1CCC[C@H]1C(=O)N[C@@H](Cc1ccccc1)C(=O)N[C@@H](CCCN=C(N)N)C(=O)N[C@@H](CCCN=C(N)N)C(=O)N[C@@H](Cc1ccccc1)C(=O)N[C@@H](CC(C)C)C(=O)O [RFRLPFRRPPIRIHPPPFYPPFRRFL]

- MIC (Pseudomonas aeruginosa): 23 µM (≈ 59.7 µg/mL)
- MIC [8]: 17 µM (≈ 44.1 µg/mL)
- MIC [9]: 23 µM (≈ 59.7 µg/mL)
- MIC [10]: ≥ 40 µM
- MIC [11]: 17 µM (≈ 44.1 µg/mL)
- MIC [12]: ≥ 60 µM
- MIC [13]: 60 µM (≈ 156 µg/mL)
- MIC (Klebsiella pneumoniae): 30 µM (≈ 77.8 µg/mL)
- MIC [14]: 15 µM (≈ 38.9 µg/mL)
- MIC (Shigella dysenteriae): ≥ 40 µM
- MIC (Staphylococcus aureus 10): ≥ 40 µM
- MIC [15]: 10 µM (≈ 25.9 µg/mL)
- MIC (Escherichia coli 37): ≥ 60 µM
Structure (SMILES): CC[C@H](C)[C@H](NC(=O)[C@H](CC(C)C)NC(=O)[C@H](CC(C)C)NC(=O)[C@H](CCCCN)NC(=O)[C@H](C)NC(=O)[C@H](CC(C)C)NC(=O)[C@H](CCCCN)NC(=O)[C@@H](NC(=O)[C@H](C)NC(=O)CNC(=O)[C@H](CCSC)NC(=O)[C@H](CO)NC(=O)[C@@H](N)CC(=O)O)C(C)C)C(=O)N[C@@H](CC(=O)O)C(=O)N[C@@H](CCCCN)C(=O)N[C@@H](CCSC)C(=O)N[C@@H](CCCCN)C(=O)N[C@H]1CSSC[C@@H](C(=O)O)NC(=O)[C@H](C)NC(=O)[C@H](CCCCN)NC(=O)[C@H]([C@@H](C)O)NC(=O)[C@H](C(C)C)NC(=O)[C@H](CCC(=O)O)NC1=O [DSMGAVKLAKLLIDKMKCEVTKAC]

- MIC [16]: 12.5 µM (≈ 22.9 µg/mL)
- MIC (Escherichia coli DC2): 0.5 µM (≈ 0.918 µg/mL)
- MIC [9]: 16 µM (≈ 29.4 µg/mL)
- MIC [11]: > 32 µM
- MIC [17]: 8 µM (≈ 14.7 µg/mL)
- MIC [18]: 4 µM (≈ 7.34 µg/mL)
- MIC [13]: > 32 µM
- MIC [19]: 3.1 µM (≈ 5.69 µg/mL)
- MIC (Escherichia coli K-12): 1.6 µM (≈ 2.94 µg/mL)
- MIC (Escherichia coli BL21): 1.6 µM (≈ 2.94 µg/mL)
- MIC [20]: 17.7 µM (≈ 32.4 µg/mL)
- MIC (Escherichia coli UB1005): 1 µM (≈ 1.84 µg/mL)
- MIC [21]: 0.5 µM (≈ 0.918 µg/mL)
- MIC [15]: 8 µM (≈ 14.7 µg/mL)
Structure (SMILES): C[C@H](NC(=O)[C@H](C)NC(=O)[C@H](Cc1ccccc1)NC(=O)[C@H](C)NC(=O)[C@H](C)NC(=O)[C@H](Cc1c[nH]c2ccccc12)NC(=O)[C@H](C)NC(=O)[C@H](C)NC(=O)[C@H](Cc1ccccc1)NC(=O)[C@H](C)NC(=O)[C@H](C)NC(=O)[C@H](CCCCN)NC(=O)[C@H](CCCCN)NC(=O)[C@H](CCCCN)NC(=O)[C@H](CCCCN)NC(=O)[C@H](CCCCN)NC(=O)[C@@H](N)CCCCN)C(N)=O [KKKKKKAAFAAWAAFAA]

- MIC [9]: > 156 µM
- MIC [22]: ≥ 156 µM
- MIC [15]: > 156 µM
Structure (SMILES): CC(C)C[C@H](NC(=O)[C@H](C)NC(=O)[C@@H](NC(=O)[C@@H](N)CCCCN)C(C)C)C(=O)NCC(=O)N[C@H](C(=O)N[C@@H](C)C(=O)N[C@@H](CCC(N)=O)C(=O)N[C@@H](CC(N)=O)C(=O)N[C@@H](Cc1ccc(O)cc1)C(=O)N[C@@H](CC(C)C)C(=O)N[C@@H](CC(N)=O)C(=O)N1CCC[C@H]1C(=O)N[C@@H](CCC(N)=O)C(=O)N[C@@H](CCC(N)=O)C(=O)O)C(C)C [KVALGVAQNYLNPQQ]
- MIC [23]: ≥ 156 µM

- MIC [24]: 208 µM (≈ 256 µg/mL)
- MIC [25]: ≥ 416 µM
- MIC [26]: ≥ 104 µM
- MIC [27]: 208 µM (≈ 256 µg/mL)
- MIC [28]: ≥ 52 µM
Structure (SMILES): CC[C@H](C)[C@H](NC(=O)[C@@H](NC(=O)[C@H](C)NC(=O)[C@H](Cc1ccccc1)NC(=O)[C@H](CC(C)C)NC(=O)CN)C(C)C)C(=O)N[C@@H](CCCCN)C(=O)N[C@@H](CCCCN)C(=O)N[C@H](C(=O)N[C@@H](C)C(=O)N[C@@H](CO)C(=O)N[C@H](C(=O)O)C(C)C)C(C)C [GLFAVIKKVASV]

- MIC [29]: 2 µM (≈ 5.74 µg/mL)
- MIC [30]: 2 µM (≈ 5.74 µg/mL)
- MIC [31]: 2 µM (≈ 5.74 µg/mL)
- MIC [32]: 4 µM (≈ 11.5 µg/mL)
- MIC [33]: 2 µM (≈ 5.74 µg/mL)
- MIC [34]: 2 µM (≈ 5.74 µg/mL)
- MIC [35]: 4 µM (≈ 11.5 µg/mL)
- MIC [36]: 4 µM (≈ 11.5 µg/mL)
Structure (SMILES): CC(C)C[C@H](NC(=O)[C@H](CO)NC(=O)[C@H](CC(C)C)NC(=O)[C@H](CC(C)C)NC(=O)[C@H](CO)NC(=O)CNC(=O)[C@H](Cc1ccccc1)NC(=O)[C@@H](N)Cc1ccccc1)C(=O)NCC(=O)N[C@@H](CO)C(=O)N[C@@H](CCCCN)C(=O)N[C@@H](CC(C)C)C(=O)N[C@@H](CC(C)C)C(=O)N1CCC[C@H]1C(=O)N[C@@H](CO)C(=O)N[C@H](C(=O)N[C@@H](Cc1ccccc1)C(=O)N[C@@H](CCCCN)C(=O)N[C@@H](CC(C)C)C(=O)N[C@@H](Cc1ccccc1)C(=O)N[C@@H](CCC(N)=O)C(=O)N[C@@H](CCCN=C(N)N)C(=O)N[C@@H](CCCCN)C(=O)N[C@@H](CCCCN)C(=O)N[C@@H](CCC(=O)O)C(N)=O)C(C)C [FFGSLLSLGSKLLPSVFKLFQRKKE]
